The source of these data is US11702404B2, “GLP-1R modulating compounds” (priority 2019, dated 2023).

In one data set the target is GLP-1R (Homo sapiens, UniProt P43220). Nature of the data set: GLP-1R activation: cAMP increase in CHO cells stably expressing GLP-1R. Format: cell-based.
The nature of data set [1]: Microsomal stability, human liver microsomes (predicted hepatic clearance). The settings on record: predicted from in vitro microsomal stability data.
Where [2] appears, read: cAMP increase, CHO cells stably expressing GLP-1R, 10 point dose response, 30 minutes incubation, read-out: EC50.

Read-outs that look alike come from different tables or passages of the source. Bounds are passed on as bounds.

GLP-1R, sequence (P43220 24-463): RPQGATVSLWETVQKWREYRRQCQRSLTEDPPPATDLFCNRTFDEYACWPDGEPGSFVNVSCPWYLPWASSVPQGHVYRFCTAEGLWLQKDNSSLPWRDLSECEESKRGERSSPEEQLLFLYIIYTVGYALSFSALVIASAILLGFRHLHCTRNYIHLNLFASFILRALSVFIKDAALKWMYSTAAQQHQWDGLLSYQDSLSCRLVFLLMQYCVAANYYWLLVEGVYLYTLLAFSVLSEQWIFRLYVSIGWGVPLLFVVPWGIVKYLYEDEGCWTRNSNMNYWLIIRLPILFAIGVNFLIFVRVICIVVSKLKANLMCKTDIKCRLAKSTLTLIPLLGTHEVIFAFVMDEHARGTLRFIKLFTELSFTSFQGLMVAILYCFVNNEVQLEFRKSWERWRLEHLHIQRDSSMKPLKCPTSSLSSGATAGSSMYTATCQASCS

The term EC50 denotes the concentration that produces a half-maximal response. Turning to `N#Cc1ccc(COc2cccc(-c3cc(F)c(Cc4nc5ccc(C(=O)O)cc5n4CC4(F)COC4)cc3F)n2)c(F)c1` [Example 270, 2-(4-(6-((4-cyano-2-fluorobenzyl)oxy)pyridin-2-yl)-2,5-difluorobenzyl)-1-((3-fluorooxetan-3-yl)methyl)-1H-benzo[d]imidazole-6-carboxylic acid], on GLP-1R (setting [2]), the EC50 worked out at 1.82 nM. In addition, the “Predicted Hepatic Clearance (Pred. Cl.)” value in data set [1] was 4.5 mL/min/kg.
The corresponding values for `N#CCC1(Cn2c(Cc3cc(F)c(-c4cccc(OCc5ccc(C#N)cc5F)n4)cc3F)nc3ccc(C(=O)O)nc32)CC1` [Example 273, 2-(4-(6-((4-cyano-2-fluorobenzyl)oxy)pyridin-2-yl)-2,5-difluorobenzyl)-3-((1-(cyanomethyl)cyclopropyl)methyl)-3H-imidazo[4,5-b]pyridine-5-carboxylic acid] are 0.52 nM and 7 mL/min/kg.
The corresponding values for `N#Cc1ccc(COc2cccc(-c3cc(F)c(Cc4nc5ccc(C(=O)O)cc5n4CC4(n5cncn5)CC4)cc3F)n2)c(F)c1` [Example 274, 1-((1-(1H-1,2,4-triazol-1-yl)cyclopropyl)methyl)-2-(4-(6-((4-cyano-2-fluorobenzyl)oxy)pyridin-2-yl)-2,5-difluorobenzyl)-1H-benzo[d]imidazole-6-carboxylic acid] are 0.23 nM and 8 mL/min/kg.
Take `N#Cc1ccc(COc2cccc(-c3ccc(Cc4nc5ccc(C(=O)O)cc5n4CC4(c5ccncc5)CC4)c(F)c3)n2)c(F)c1` [Example 275, 2-(4-(6-((4-cyano-2-fluorobenzyl)oxy)pyridin-2-yl)-2-fluorobenzyl)-1-((1-(pyridin-4-yl)cyclopropyl)methyl)-1H-benzo[d]imidazole-6-carboxylic acid]: the EC50 on GLP-1R (setting [2]) was 5.51 nM. Further, the “Predicted Hepatic Clearance (Pred. Cl.)” value in data set [1] is 12.2 mL/min/kg.
With `N#Cc1ccc(COc2cccc(-c3ccc(Cc4nc5c(F)cc(C(=O)O)cc5n4CC4(CF)CC4)cc3F)n2)c(F)c1` [Example 276, 2-(4-(6-((4-cyano-2-fluorobenzyl)oxy)pyridin-2-yl)-3-fluorobenzyl)-4-fluoro-1-((1-(fluoromethyl)cyclopropyl)methyl)-1H-benzo[d]imidazole-6-carboxylic acid], the EC50 at GLP-1R (setting [2]) is 0.23 nM. Besides, in data set [1], the “Predicted Hepatic Clearance (Pred. Cl.)” value is 6.42 mL/min/kg.
Take `N#Cc1ccc(COc2cccc(-c3ccc(Cc4nc5ccc(C(=O)O)nc5n4CC4(CF)CC4)cc3F)n2)c(F)c1` [Example 277, 2-(4-(6-((4-cyano-2-fluorobenzyl)oxy)pyridin-2-yl)-3-fluorobenzyl)-3-((1-(fluoromethyl)cyclopropyl)methyl)-3H-imidazo[4,5-b]pyridine-5-carboxylic acid]: the concentration for a half-maximal effect (EC50) on GLP-1R (setting [2]) came out at 1.57 nM. Also, in data set [1], the “Predicted Hepatic Clearance (Pred. Cl.)” value was 7.17 mL/min/kg.
In the case of `CC(C)(O)[C@H](F)Cn1c(Cc2ccc(-c3cccc(OCc4ccc(C#N)cc4F)n3)cc2F)nc2ccc(C(=O)O)cc21` [Example 278, (R)-2-(4-(6-((4-cyano-2-fluorobenzyl)oxy)pyridin-2-yl)-2-fluorobenzyl)-1-(2-fluoro-3-hydroxy-3-methylbutyl)-1H-benzo[d]imidazole-6-carboxylic acid], the EC50 on GLP-1R (setting [2]) stood at 1640 nM. Moreover, the “Predicted Hepatic Clearance (Pred. Cl.)” value in data set [1] was 3 mL/min/kg.
Consider `CC(C)(C#N)Cn1c(Cc2ccc(-c3cccc(OCc4ccc(C#N)cc4F)n3)c(F)c2)nc2ccc(C(=O)O)cc21` [Example 279, 2-(4-(6-((4-cyano-2-fluorobenzyl)oxy)pyridin-2-yl)-3-fluorobenzyl)-1-(2-cyano-2-methylpropyl)-1H-benzo[d]imidazole-6-carboxylic acid], for which the EC50 on GLP-1R (setting [2]) came out at 3.07 nM. Further, the “Predicted Hepatic Clearance (Pred. Cl.)” value in data set [1] is 8.3 mL/min/kg.
The corresponding values for `COCCn1c(Cc2cc(F)c(-c3ccnc(OCc4ccc(C#N)cc4F)n3)cc2F)nc2c(F)cc(C(=O)O)cc21` [Example 280, 2-(4-(2-((4-cyano-2-fluorobenzyl)oxy)pyrimidin-4-yl)-2,5-difluorobenzyl)-4-fluoro-1-(2-methoxyethyl)-1H-benzo[d]imidazole-6-carboxylic acid] are 0.62 nM and 4 mL/min/kg.
Consider `N#CCC1(Cn2c(Cc3ccc(-c4ccnc(OCc5ccc(C#N)cc5F)n4)c(F)c3)nc3ccc(C(=O)O)cc32)CC1` [Example 281, 2-(4-(2-((4-cyano-2-fluorobenzyl)oxy)pyrimidin-4-yl)-3-fluorobenzyl)-1-((1-(cyanomethyl)cyclopropyl)methyl)-1H-benzo[d]imidazole-6-carboxylic acid], for which the half-maximal effective concentration (EC50) at GLP-1R (setting [2]) was found to be 2.3 nM. Also, in data set [1], the “Predicted Hepatic Clearance (Pred. Cl.)” value was 6.7 mL/min/kg.
For `N#Cc1ccc(COc2cccc(-c3ccc(Cc4nc5ccc(C(=O)O)cc5n4CC4(n5ccnn5)CC4)c(F)c3)n2)c(F)c1` [Example 284, 1-((1-(1H-1,2,3-triazol-1-yl)cyclopropyl)methyl)-2-(4-(6-((4-cyano-2-fluorobenzyl)oxy)pyridin-2-yl)-2-fluorobenzyl)-1H-benzo[d]imidazole-6-carboxylic acid] the same measures were 2.87 nM and less than 1.83 mL/min/kg.
The corresponding values for `COCCn1c(Cc2ccc(-c3cccc(OCc4ccc(C#N)cc4F)n3)cc2F)nc2c(F)cc(C(=O)O)cc21` [Example 285, 2-(4-(6-((4-cyano-2-fluorobenzyl)oxy)pyridin-2-yl)-2-fluorobenzyl)-4-fluoro-1-(2-methoxyethyl)-1H-benzo[d]imidazole-6-carboxylic acid] are 2.19 nM and less than 1.83 mL/min/kg.
Regarding `N#Cc1ccc(COc2cccc(-c3ccc(Cc4nc5ccc(C(=O)O)cc5n4CC4(CF)CC4)c(C#N)c3)n2)c(F)c1` [Example 286, 2-(2-cyano-4-(6-((4-cyano-2-fluorobenzyl)oxy)pyridin-2-yl)benzyl)-1-((1-(fluoromethyl)cyclopropyl)methyl)-1H-benzo[d]imidazole-6-carboxylic acid], the 50% effective concentration (EC50) on GLP-1R (setting [2]) amounted to 21.2 nM. The “Predicted Hepatic Clearance (Pred. Cl.)” value in data set [1] is 2.62 mL/min/kg.
Turning to `N#CCC1(Cn2c(Cc3ccc(-c4cccc(OCc5ccc(C#N)cc5F)n4)c(F)c3)nc3c(F)cc(C(=O)O)cc32)CC1` [Example 287, 2-(4-(6-((4-cyano-2-fluorobenzyl)oxy)pyridin-2-yl)-3-fluorobenzyl)-1-((1-(cyanomethyl)cyclopropyl)methyl)-4-fluoro-1H-benzo[d]imidazole-6-carboxylic acid], the EC50 on GLP-1R (setting [2]) came to 0.14 nM. Moreover, the “Predicted Hepatic Clearance (Pred. Cl.)” value in data set [1] is 10.5 mL/min/kg.
`N#Cc1ccc(COc2cccc(-c3ccc(Cc4nc5c(F)cc(C(=O)O)cc5n4CC4(C(F)F)CC4)cc3F)n2)c(F)c1` [Example 288, 2-(4-(6-((4-cyano-2-fluorobenzyl)oxy)pyridin-2-yl)-3-fluorobenzyl)-1-((1-(difluoromethyl)cyclopropyl)methyl)-4-fluoro-1H-benzo[d]imidazole-6-carboxylic acid]: the EC50 on GLP-1R (setting [2]) turned out to be 0.76 nM. The “Predicted Hepatic Clearance (Pred. Cl.)” value in data set [1] was 5.08 mL/min/kg.
With `N#Cc1ccc(COc2cccc(-c3ccc(Cc4nc5ccc(C(=O)O)cc5n4CC4(Br)CC4)c(F)c3)n2)c(F)c1` [Example 289, 1-((1-bromocyclopropyl)methyl)-2-(4-(6-((4-cyano-2-fluorobenzyl)oxy)pyridin-2-yl)-2-fluorobenzyl)-1H-benzo[d]imidazole-6-carboxylic acid], on GLP-1R (setting [2]), the EC50 was determined as 3.02 nM. The “Predicted Hepatic Clearance (Pred. Cl.)” value in data set [1] is 1.92 mL/min/kg.
With `CN(C)CC1(Cn2c(Cc3ccc(-c4cccc(OCc5ccc(C#N)cc5F)n4)cc3F)nc3ccc(C(=O)O)cc32)CC1` [Example 290, 2-(4-(6-((4-cyano-2-fluorobenzyl)oxy)pyridin-2-yl)-2-fluorobenzyl)-1-((1-((dimethylamino)methyl)cyclopropyl)methyl)-1H-benzo[d]imidazole-6-carboxylic acid], the 50% effective concentration (EC50) on GLP-1R (setting [2]) stood at 62.3 nM. Besides, the “Predicted Hepatic Clearance (Pred. Cl.)” value in data set [1] is 8.42 mL/min/kg.
For `COCCC1(Cn2c(Cc3ccc(-c4cccc(OCc5ccc(C#N)cc5F)n4)cc3F)nc3ccc(C(=O)O)cc32)CC1` [Example 291, 2-(4-(6-((4-cyano-2-fluorobenzyl)oxy)pyridin-2-yl)-2-fluorobenzyl)-1-((1-(2-methoxyethyl)cyclopropyl)methyl)-1H-benzo[d]imidazole-6-carboxylic acid], the 50% effective concentration (EC50) on GLP-1R (setting [2]) was 1.06 nM. The “Predicted Hepatic Clearance (Pred. Cl.)” value in data set [1] was less than 1.83 mL/min/kg.
The corresponding values for `N#Cc1ccc(COc2cccc(-c3ccc(Cc4nc5ccc(C(=O)O)cc5n4CC4(c5cccnc5)CC4)c(F)c3)n2)c(F)c1` [Example 292, 2-(4-(6-((4-cyano-2-fluorobenzyl)oxy)pyridin-2-yl)-2-fluorobenzyl)-1-((1-(pyridin-3-yl)cyclopropyl)methyl)-1H-benzo[d]imidazole-6-carboxylic acid] are 49.4 nM and 9.5 mL/min/kg.
`N#Cc1ccc(COc2cccc(-c3ccc(Cc4nc5ccc(C(=O)O)cc5n4CC4(C5CC5)CC4)c(F)c3)n2)c(F)c1` [Example 293, 1-([1,1′-bi(cyclopropan)]-1-ylmethyl)-2-(4-(6-((4-cyano-2-fluorobenzyl)oxy)pyridin-2-yl)-2-fluorobenzyl)-1H-benzo[d]imidazole-6-carboxylic acid]: the concentration giving a half-maximal response (EC50) at GLP-1R (setting [2]) worked out at 3.13 nM. The “Predicted Hepatic Clearance (Pred. Cl.)” value in data set [1] is less than 1.83 mL/min/kg.
As for `CC(C)(CF)Cn1c(Cc2ccc(-c3cccc(OCc4ccc(C#N)cc4F)n3)c(F)c2)nc2ccc(C(=O)O)cc21` [Example 294, 2-(4-(6-((4-cyano-2-fluorobenzyl)oxy)pyridin-2-yl)-3-fluorobenzyl)-1-(3-fluoro-2,2-dimethylpropyl)-1H-benzo[d]imidazole-6-carboxylic acid], at GLP-1R (EC50 (nM)), the half-maximal effective concentration (EC50) turned out to be 0.75 nM. Also, in data set [1], the “Predicted Hepatic Clearance (Pred. Cl.)” value is 8.3 mL/min/kg.
Take `CC(C)(Cn1c(Cc2ccc(-c3cccc(OCc4ccc(C#N)cc4F)n3)c(F)c2)nc2ccc(C(=O)O)cc21)C(F)F` [Example 295, 2-(4-(6-((4-cyano-2-fluorobenzyl)oxy)pyridin-2-yl)-3-fluorobenzyl)-1-(3,3-difluoro-2,2-dimethylpropyl)-1H-benzo[d]imidazole-6-carboxylic acid]: on GLP-1R (setting [2]), the EC50 stood at 2.12 nM. Besides, the “Predicted Hepatic Clearance (Pred. Cl.)” value in data set [1] was 8.3 mL/min/kg.
